Measured values reported in paper PMC9181924, “Antiproliferative and Proapoptotic Effects of Phenanthrene Derivatives Isolated from Bletilla striata on A549 Lung Cancer Cells” (Molecules, 2022).
Several values for one entry are separate records, joined by “and”; a condition that tells them apart may be missing. Equal entries are not always repeated. Where two headings read alike, the source gives them in different places.

Key:
[1] = test system: A549 cells; assay: MTT cytotoxicity assay on A549 cells; assay type: cell-based, human; conditions: mean ± SD, n = 3, read-out: IC50, cytotoxicity against A549 cells
Excerpt: (§1) The purity of the tested compounds was more than 98%. The cytotoxic effects of isolated phenanthrenes on A549 and BEAS-2B cells were examined by MTT experiments as described in our previous report.

[2] = MTT cytotoxicity assay on BEAS-2B cells; assay type: cell-based; conditions: BEAS-2B cells (normal human lung cells), BEAS-2B normal human lung cells, read-out: IC50, cytotoxic effect on BEAS-2B cells
Excerpt: as §1

[3] = test system: A549 cells; assay: EdU proliferation experiment; assay type: cell-based, human; conditions: 48 h, control 100%
Experimental: The cells were digested by trypsin and cultivated in 96-well plates (3.5 × 10^3 cells per well) for 24 h. They were incubated with compound 1 (3.13, 6.25, and 12.5 μM) for 48 h. Next, prepared EdU-labeling solution (10 µM) was used to stain the cells in an incubator at 37 °C for 2 h. The cells were fixed for 15 min with 4% cold paraformaldehyde. After that, Triton X-100 (0.3%) and Click-iT reaction cocktail were successively used to handle cells. Finally, DAPI staining was applied to the cells to counterstain them. A Leica DMI3000B inverted fluorescence microscope (Leica, Wetzlar, Germany) was used to capture the fluorescent images. In addition, to count the cells, ImageJ software (version 1.8.0) (National Institutes of Health, Bethesda, MD, USA) was used. EdU positive cells (%) = (green EdU-stained cells/blue DAPI-stained cells) × 100.

[4] = test system: A549 cells; assay: Cell cycle analysis by flow cytometry; assay type: cell-based, human; conditions: 48 h; for percentage of G0/G1 phase cells / percentage of S phase cells: Figure 3C; for percentage of G2/M phase cells: untreated control 7.41 ± 0.79%
Experimental: According to the manufacture’s instructions, the cells were treated with compound 1 (3.13, 6.25, and 12.5 μM) for 48 h. Then, they were cultured with 500 μL staining solution (RNase A:PI = 1:9) for 1 h at room temperature without light after fixation with 70% pre-chilled ethanol for 2 h. The DNA content was instantly detected with a BD FACSCanto II flow cytometer (BD Biosciences, Franklin Lakes, NJ, USA).

[5] = test system: A549 cells; assay: Wound healing assay; assay type: cell-based, human; conditions: 24 h, control 56.46 ± 4.46%
Experimental: Cells were placed in 6-well plates for the wound healing test. The scratches were formed using a sterile 200-µL pipette tip when the cells treated with compound 1 (3.13, 6.25, and 12.5 μM) had grown to 90% confluence. After a 24-h incubation, the images were obtained with the Leica microscope and the scratch area was calculated with the ImageJ.

[6] = test system: A549 cells; assay: Transwell migration assay; assay type: cell-based, human; conditions: 24 h, control 100%
Experimental: The migratory effect of compound 1 (3.13, 6.25, and 12.5 μM) on A549 cells was further detected by using transwell chambers. Briefly, the cells treated with compound 1 were placed into the upper wells, while the medium with 10% FBS was added to the bottom wells. After a 24-h incubation, non-migrated cells were cleaned up, and the migrated cells were fixed for 30 min with 4% paraformaldehyde and dyed by 0.1% crystal violet. The images and the cell numbers were obtained by the Leica microscope and ImageJ, respectively.

[7] = test system: A549 cells; assay: Apoptosis by flow cytometry (Annexin V/PI); assay type: cell-based, human; conditions: 48-h treatment, control 1.21 ± 0.37%
Experimental: Quadrants 2 (Annexin V+/PI+) and 3 (Annexin V+/PI−) pointed to the percentage of apoptotic cells. As for the control group, the apoptosis rate was only 1.21 ± 0.37%. […] The data disclosed that compound 1 greatly promoted the apoptosis of A549 cells, especially in the high-concentration group (12.5 µM).
The A549 cells were treated with compound 1 (3.13, 6.25, and 12.5 μM), and the cell apoptosis was detected by flow cytometry assay as described in our previous report.

[8] = test system: Akt; assay: Western blot, Akt phosphorylation in A549 cells; assay type: cell-based, human; conditions: A549, 3.13, 6.25, and 12.5 µM, 48 h; p < 0.05 at 3.13 μM, p < 0.01 at 6.25 and 12.5 μM vs control
Experimental: (§2) SDS–PAGE and PVDF membranes were used to separate and transfer the protein, respectively. […] The membranes were washed with TBST and incubated with an HRP-conjugated secondary antibody for 1 h at 37 °C. Finally, the protein bands were detected with a Tanon 5200 chemiluminescent imaging system (Tanon, Shanghai, China).

[9] = test system: MEK1/2; assay: Western blot, MEK1/2 phosphorylation in A549 cells; assay type: cell-based, human; conditions: A549, 3.13, 6.25, and 12.5 μM, 48 h; p < 0.01 vs control
Experimental: as §2

[10] = test system: ERK1/2; assay: Western blot, ERK1/2 phosphorylation in A549 cells; assay type: cell-based, human; conditions: A549, 3.13, 6.25, and 12.5 µM, 48 h; p < 0.05 at 3.13 μM, p < 0.01 at 6.25 and 12.5 μM vs control
Experimental: as §2

[11] = test system: Bcl-2; assay: Western blot, Bcl-2 expression in A549 cells; assay type: cell-based, human; conditions: A549, 3.13, 6.25, and 12.5 μM, 48 h; p < 0.01 vs control
Experimental: as §2

[12] = test system: Bax; assay: Western blot, Bax expression in A549 cells; assay type: cell-based, human; conditions: A549, 6.25 and 12.5 μM, 48 h; p < 0.01 vs control
Experimental: as §2

SMILES: COc1cc(O)cc2c1-c1ccc(O)c(-c3c(O)cc(OC)c4c3CCc3cc(O)ccc3-4)c1CC2 [Compound 1, 4,5′-dimethoxy-9,9′,10,10′-tetrahydro-[1,1′-biphenanthrene]-2,2′,7,7′-tetraol]
- IC50 ([1]; A549 cells): 6.86 ± 0.71 µM
- IC50 ([1]; Homo sapiens, A549, A549 cells): < 10 µM
- IC50 [2]: 15.2 ± 1.62 µM
- percentage of EdU-positive cells ([3]; A549, 3.13 μM): 67.66 ± 4.51%
- percentage of EdU-positive cells ([3]; A549, 6.25 μM): 56.33 ± 4.50%
- percentage of EdU-positive cells ([3]; A549, 12.5 μM): 34.01 ± 4.58%
- percentage of G0/G1 phase cells ([4]; A549, 3.13 μM): 76.42%
- percentage of S phase cells ([4]; A549, 3.13 μM): 11.73%
- percentage of G2/M phase cells ([4]; A549, 3.13 μM): 11.85 ± 1.26% and 11.85%
- percentage of G0/G1 phase cells ([4]; A549, 6.25 μM): 70.16%
- percentage of S phase cells ([4]; A549, 6.25 μM): 15.31%
- percentage of G2/M phase cells ([4]; A549, 6.25 μM): 14.53 ± 1.75% and 14.53%
- percentage of G0/G1 phase cells ([4]; A549, 12.5 μM): 50.11%
- percentage of S phase cells ([4]; A549, 12.5 μM): 22.81%
- percentage of G2/M phase cells ([4]; A549, 12.5 μM): 27.08 ± 2.65% and 27.08%
- migration rate (wound healing) ([5]; A549, 3.13 µM): 31.10 ± 2.92%
- migration rate (wound healing) ([5]; A549, 6.25 µM): 15.23 ± 1.81%
- migration rate (wound healing) ([5]; A549, 12.5 µM): 11.01 ± 1.81%
- migrated cell numbers (transwell) ([6]; A549, 3.13 µM): 72.09 ± 4.65%
- migrated cell numbers (transwell) ([6]; A549, 6.25 µM): 29.45 ± 2.92%
- migrated cell numbers (transwell) ([6]; A549, 12.5 µM): 10.19 ± 1.25%
- apoptosis rate (Annexin V+/PI+ and Annexin V+/PI−) ([7]; A549, 3.13 µM): 2.57 ± 0.53%
- apoptosis rate (Annexin V+/PI+ and Annexin V+/PI−) ([7]; A549, 6.25 µM): 12.25 ± 2.21%
- apoptosis rate (Annexin V+/PI+ and Annexin V+/PI−) ([7]; A549, 12.5 µM): 49.79 ± 8.54%
- expression ratio of p-Akt/Akt [8]: significantly suppressed
- expression ratio of p-MEK/MEK [9]: significantly suppressed
- expression ratio of p-ERK/ERK [10]: significantly suppressed
- Bcl-2/Bax ratio [11]: reduced
- Bcl-2 protein levels [11]: significantly decreased
- Bax protein levels [12]: increased

SMILES: COc1cc(O)c(-c2c(O)cc3c(c2OC)-c2ccc(O)c(Cc4ccc(O)cc4)c2CC3)c2c1-c1ccc(O)cc1CC2 [Compound 2, 4,4′-dimethoxy-8′-(p-hydroxybenzyl)-9,9′,10,10′-tetrahydro-[1,3′-biphenanthrene]-2,2′,7,7′-tetraol]
- IC50 ([1]; A549 cells): 8.75 ± 0.61 µM
- IC50 ([1]; Homo sapiens, A549, A549 cells): < 10 µM

SMILES: COc1cc(O)c(-c2c(O)cc3c(c2OC)-c2ccc(O)cc2CC3)c2c1-c1ccc(O)cc1CC2 [Compound 3, blestrianol A]
- IC50 ([1]; Homo sapiens, A549, A549 cells): 10.5 ± 2.55 µM

SMILES: COc1cc(O)cc2c1-c1cc(-c3c(O)cc(OC)c4c3CCc3cc(O)ccc3-4)c(O)cc1CC2 [Compound 4, gymconopin C]
- IC50 ([1]; A549 cells): 9.91 ± 0.68 µM
- IC50 ([1]; Homo sapiens, A549, A549 cells): < 10 µM

SMILES: COc1c(O)ccc2c1ccc1c(-c3c(O)cc(OC)c4c3ccc3cc(O)ccc34)c(O)cc(OC)c12 [Compound 5, bleformin G]
- IC50 ([1]; Homo sapiens, A549, A549 cells): > 100 µM

SMILES: COc1cc(O)c(-c2c(O)cc(OC)c3c2ccc2cc(O)ccc23)c2ccc3cc(O)ccc3c12 [Compound 6, blestriarene C]
- IC50 ([1]; A549 cells): 9.45 ± 0.52 µM
- IC50 ([1]; Homo sapiens, A549, A549 cells): < 10 µM

SMILES: COc1cc(O)c(Cc2ccc(O)cc2)c2c1-c1ccc(Oc3c(O)cc(OC)c4c3CCc3cc(O)ccc3-4)cc1CC2 [Compound 8, blestanol C]
- IC50 ([1]; A549 cells): 8.62 ± 0.64 µM
- IC50 ([1]; Homo sapiens, A549, A549 cells): < 10 µM

SMILES: COc1cc(O)cc2c1-c1ccc(O)cc1CC2 [Compound 9, 2,7-dihydroxy-4-methoxy-9,10-dihydrophenanthrene]
- IC50 ([1]; Homo sapiens, A549, A549 cells): 51.5 ± 1.87 µM

SMILES: COc1cc(O)c(O)c2c1-c1ccc(O)cc1CC2 [Compound 10, 4-methoxy-9,10-dihydrophenanthrene-1,2,7-triol]
- IC50 ([1]; Homo sapiens, A549, A549 cells): 16.3 ± 2.22 µM

SMILES: COc1cc(O)c(Cc2ccc(O)cc2)c2c1-c1ccc(O)cc1CC2 [Compound 12, 1-(p-hydroxybenzyl)-4-methoxy-9,10-dihydrophenanthrene-2,7-diol]
- IC50 ([1]; Homo sapiens, A549, A549 cells): 33.3 ± 0.49 µM

SMILES: COc1ccc(Cc2c(O)cc(O)c3c2CCc2cc(OC)ccc2-3)cc1 [Compound 13, pleioanthrenin]
- IC50 ([1]; A549 cells): 9.52 ± 0.47 µM
- IC50 ([1]; Homo sapiens, A549, A549 cells): < 10 µM

SMILES: COc1cc(O)c(Cc2ccc(O)cc2)c2c1-c1cc(Cc3ccc(O)cc3)c(O)cc1CC2 [Compound 14, 1,6-bis(p-hydroxybenzyl)-4-methoxy-9,10-dihydrophenanthrene-2,7-diol]
- IC50 ([1]; Homo sapiens, A549, A549 cells): 12 ± 0.79 µM

SMILES: COc1cc2ccc3cc(O)ccc3c2c(OC)c1O [Compound 16, 3,7-dihydroxy-2,4-dimethoxyphenanthrene]
- IC50 ([1]; Homo sapiens, A549, A549 cells): 63.8 ± 4.67 µM

SMILES: COc1cc(O)c(Cc2ccc(O)cc2)c2ccc3cc(O)ccc3c12 [Compound 17, 1-(p-hydroxybenzyl)-4-methoxyphenanthrene-2,7-diol]
- IC50 ([1]; Homo sapiens, A549, A549 cells): 32.6 ± 2.33 µM
